Measurements reported in ChEMBL document CHEMBL1126805, “Synthesis and evaluation of a series of benzylaniline hydrochlorides as potential cytotoxic and antimitotic agents acting by inhibition of tubulin polymerization” (J Med Chem, 1993).

Columns and labels:
COLO 205 = assay: Tested for cytotoxicity against COLO 205 (colon cancer) cell line.; type: functional, Homo sapiens
OVCAR-3 = assay: Tested for cytotoxicity against OVCAR-3 (ovarian cancer) cell line.; type: functional, Homo sapiens
HL-60 = assay: Tested for cytotoxicity against human cancer cell lines HL-60(TB) (leukemia) cell line.; type: functional
SF-295 = assay: In vitro cytotoxicity against SF-295 (CNS cancer) cell line.; type: functional, Homo sapiens
CAKI-1 = assay: Tested for cytotoxicity against CAKI-1 renal cancer; type: functional, Homo sapiens
M14 = assay: Tested for cytotoxicity against M14 melanoma; type: functional, Homo sapiens
NCI-H522 = assay: Tested for cytotoxicity against NCI-H522 (non-small-cell lung cancer) cell line.; type: functional, Homo sapiens
DMS-273 = assay: Tested for cytotoxicity against DMS 273 (small-cell lung cancer) cell line.; type: functional, Homo sapiens
Tubulin = Tubulin (Bos taurus, UniProt Q6B856+Q862F3); assay: In vitro inhibition of bovine electrophoretically homogeneous tubulin polymerization.; type: functional
Tubulin, sequence (Q6B856 whole entry): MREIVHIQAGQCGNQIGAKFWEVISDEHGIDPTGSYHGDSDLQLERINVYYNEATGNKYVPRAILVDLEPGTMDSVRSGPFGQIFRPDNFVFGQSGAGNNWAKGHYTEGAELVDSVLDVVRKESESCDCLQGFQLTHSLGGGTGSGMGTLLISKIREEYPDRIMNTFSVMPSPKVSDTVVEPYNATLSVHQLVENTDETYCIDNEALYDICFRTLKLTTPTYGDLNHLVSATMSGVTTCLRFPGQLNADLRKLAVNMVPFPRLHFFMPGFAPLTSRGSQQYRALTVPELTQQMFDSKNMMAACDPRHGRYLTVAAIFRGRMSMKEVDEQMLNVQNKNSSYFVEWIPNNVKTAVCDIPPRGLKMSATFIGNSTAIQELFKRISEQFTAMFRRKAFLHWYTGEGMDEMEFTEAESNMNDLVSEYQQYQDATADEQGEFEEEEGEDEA
Tubulin, sequence (Q862F3 whole entry): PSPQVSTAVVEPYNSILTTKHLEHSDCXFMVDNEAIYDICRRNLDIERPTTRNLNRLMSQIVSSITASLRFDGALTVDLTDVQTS

SMILES	GI50 (COLO 205) [nM]	GI50 (OVCAR-3) [nM]	GI50 (HL-60) [nM]	GI50 (SF-295) [nM]	GI50 (CAKI-1) [nM]	GI50 (M14) [nM]	GI50 (NCI-H522) [nM]	GI50 (DMS-273) [nM]	IC50 (Tubulin) [nM]	GI50 (OVCAR-3; Homo sapiens, OVCAR-3) [nM]	GI50 (SF-295; Homo sapiens, SF-295) [nM]	GI50 (CAKI-1; Homo sapiens, CAKI-1) [nM]	GI50 (M14; Homo sapiens, M14) [nM]	GI50 (NCI-H522; Homo sapiens, NCI-H522) [nM]	GI50 (DMS-273; Homo sapiens, DMS-273) [nM]	GI50 (COLO 205; Homo sapiens, COLO 205) [nM]	GI50 (HL-60; Homo sapiens, HL-60) [nM]
CCOc1ccc(NCc2cc(OC)c(OC)c(OC)c2)cc1 [listing 1 of 2 here]	538	464	448	418	1050	532	574	961	11000								
CCc1ccc(/N=C/c2cc(OC)c(OC)c(OC)c2)cc1									> 40000	> 100000	> 100000	> 100000	> 100000	> 100000	> 100000		
CCOc1ccc(NCc2cc(OC)c(OC)c(OC)c2)cc1 [listing 2 of 2 here]								296	12000	340	274	2040	403	380		432	296
CCc1ccc(NCc2cc(OC)c(OC)c(OC)c2)cc1	352	405	245	339		437	371	818	7200								
